Inhibition and IC50 data for nine molecules are collected here from patent publication US10988466B2, “Heterocyclic derivatives useful as SHP2 inhibitors” (Jacobio Pharmaceuticals Co., Ltd., priority 2017, dated 2021).

Structures are written as SMILES. Where two headings read alike, the source gives them in different places.

For assay [1], the target named is T1, SHP2 (Homo sapiens, UniProt Q06124).
T1 sequence (Q06124 1-593): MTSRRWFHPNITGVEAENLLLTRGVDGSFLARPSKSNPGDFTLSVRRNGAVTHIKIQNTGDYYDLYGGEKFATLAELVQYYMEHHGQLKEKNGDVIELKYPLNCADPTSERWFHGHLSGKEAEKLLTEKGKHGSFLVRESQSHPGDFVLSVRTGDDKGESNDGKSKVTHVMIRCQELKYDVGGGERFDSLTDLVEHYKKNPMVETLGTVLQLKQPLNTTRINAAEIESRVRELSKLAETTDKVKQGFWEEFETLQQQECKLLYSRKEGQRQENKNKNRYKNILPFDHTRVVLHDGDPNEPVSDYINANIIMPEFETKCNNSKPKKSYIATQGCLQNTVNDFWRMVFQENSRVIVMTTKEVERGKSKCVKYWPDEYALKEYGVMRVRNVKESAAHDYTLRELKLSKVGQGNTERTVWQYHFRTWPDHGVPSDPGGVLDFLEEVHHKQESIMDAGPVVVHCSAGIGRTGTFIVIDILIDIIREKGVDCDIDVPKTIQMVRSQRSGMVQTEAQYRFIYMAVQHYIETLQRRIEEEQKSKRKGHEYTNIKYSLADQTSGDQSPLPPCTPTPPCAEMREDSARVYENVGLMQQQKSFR
Kind of assay: biochemical. The following applies: read-out: SHP2 inhibition (%)@0.1 μM.

The target in assay [2] is T1, SHP2. Kind of assay: Phosphatase assays (IC50), DiFMUP substrate.
The next assay has as its system MV-4-11. The assay can be described thus: Cell proliferation assay (MTS/PMS). It is filed as cell-based. The following applies: Homo sapiens, MV4-11.
[3] abbreviates: SHP2 0.5 nM activated with dPEG8 peptide, DiFMUP 12 μM, 30 min.
Setting [4] is: MV-4-11 cell proliferation, MTS/PMS readout at day 8, compounds added 24 hours after plating, read-out: IC50.

As to `N=C1c2cscc2CC12CCN(c1cnc(Sc3ccnc(N)c3Cl)c(N)n1)CC2` [Example 146, 3-((2-amino-3-chloropyridin-4-yl)thio)-6-(4-imino-4H,6H-spiro [cyclopenta[c]thiophene-5,4′-piperidin]-1′-yl)pyrazin-2-amine], the inhibition at 0.1 µM at SHP2 [1] is 82%. In addition, on SHP2 [2], the midpoint of inhibition, the IC50, lay at 12 nM.

Take `Nc1nc(N2CCC3(CC2)Cc2ccccc2[C@H]3N)cnc1Sc1ccnc(N)c1Cl` [Example 2, (S)-1′-(6-amino-5-((2-amino-3-chloropyridin-4-yl)thio)pyrazin-2-yl)-1,3-dihydrospiro[indene-2,4′-piperidin]-1-amine]: the 50% inhibitory concentration (IC50) in the assay with MV-4-11 came out at 2.7 nM; against SHP2 [2] (setting [3]), 4 nM. The inhibition at 0.1 µM at SHP2 [1] turned out to be 75%.

In the case of `Nc1nc(N2CCC3(CC2)c2ccccc2C[C@H]3N)cnc1Sc1ccnc(N)c1Cl` [Example 1, (R)-1′-(6-amino-5-((2-amino-3-chloropyridin-4-yl)thio)pyrazin-2-yl)-2,3-dihydrospiro[indene-1,4′-piperidin]-2-amine], on SHP2 [1], the inhibition at 0.1 µM amounted to 87%. The same molecule came in with an IC50 against SHP2 [2] (setting [3]) of 8 nM.

For the molecule `COc1ccc2c(c1)[C@@H](N)C1(CCN(c3cnc(Sc4ccnc(N)c4Cl)c(N)n3)CC1)C2` [Example 5, (S)-1′-(6-amino-5-((2-amino-3-chloropyridin-4-yl)thio)pyrazin-2-yl)-6-methoxy-1,3-dihydro spiro[indene-2,4′-piperidin]-1-amine], the concentration for half-maximal inhibition (IC50) was 4.8 nM with MV-4-11 and 6 nM against SHP2 [2]. For the same molecule, the inhibition at 0.1 µM at SHP2 [1] was determined as 84%.

With `Nc1nc(N2CCC3(CC2)Cc2nc(Cl)ccc2[C@H]3N)cnc1Sc1ccnc(N)c1Cl` [Example 19, (S)-1′-(6-amino-5-((2-amino-3-chloropyridin-4-yl)thio)pyrazin-2-yl)-2-chloro-5,7-dihydrospiro[cyclopenta [b]pyridine-6,4′-piperidin]-5-amine], the inhibition at 0.1 µM at SHP2 [1] stood at 86%. The same molecule had a 50% inhibitory concentration (IC50) on SHP2 [2] of 7 nM.

Consider `CC(=O)N1CC(F)(F)c2c(Sc3ncc(N4CCC5(CC4)CC4CC4[C@H]5N)nc3N)cccc21` (stereo partly drawn) [Example 7, 1-(4-((3-amino-5-((2R)-2-aminospiro [bicyclo[3.1.0]hexane-3,4′-piperidin]-1′-yl)pyrazin-2-yl)thio)-3,3-difluoro-indolin-1-yl)ethan-1-one], for which the inhibition at 0.1 µM on SHP2 [1] was 81%. The molecule also came in with an IC50 against SHP2 [2] of 22 nM.

For the molecule `Nc1nc(N2CCC3(CC2)CC2CC2[C@H]3N)cnc1Sc1ccnc(N)c1Cl` (stereo partly drawn) [Example 81, (2R)-1′-(6-amino-5-((2-amino-3-chloropyridin-4-yl)thio)pyrazin-2-yl)spiro [bicyclo[3.1.0]hexane-3,4′-piperidin]-2-amine], the inhibition at 0.1 µM at SHP2 [1] came to 75%. On SHP2 [2], this molecule registered a concentration for half-maximal inhibition (IC50) of 8 nM.

As to `Nc1nc(N2CCC3(CC2)Cc2sc(Cl)nc2[C@H]3N)cnc1Sc1ccnc(N)c1Cl` [Example 44, (S)-1′-(6-amino-5-((2-amino-3-chloropyridin-4-yl)thio)pyrazin-2-yl)-2-chloro-4,6-dihydro-spiro[cyclopenta[d]thiazole-5,4′-piperidin]-4-amine], the IC50 in the assay on MV-4-11 (setting [4]) was determined as 7.4 nM; at SHP2 [2], 4 nM. The inhibition at 0.1 µM at SHP2 [1] worked out at 88%.

Take `Nc1nc(N2CCC3(CC2)Cc2ncccc2[C@H]3N)cnc1Sc1ccnc(N)c1Cl` [Example 10, (S)-1′-(6-amino-5-((2-amino-3-chloropyridin-4-yl)thio)pyrazin-2-yl)-5,7-dihydrospiro [cyclopenta[b]pyridine-6,4′-piperidin]-5-amine]: the IC50 with MV-4-11 (setting [4]) was found to be 4 nM; against SHP2 [2], 7 nM.
